# From patent publication US20100297256A1, “METHODS AND COMPOSITIONS FOR INHIBITING INTEGRINS USING TELLURIUM-CONTAINING COMPOUNDS” (priority 2007, published 2010)
# Tested on: West Nile Virus (WNV)
# Test: Cell-free virus assay
# Type: cell-based
# Settings: Vero cells, 5 and 10 μg/ml 1 hour before infection, 1 hour after adsorption
# Method: Cells were plated 20 hours before virus infection in 6-well plates at a density of 2×10^5 cells/plate, and treated with AS101 (1-10 μg/ml) for 1 hour or for 5-10 minutes before WNV infection. The cells were infected at MOI=5 PFU/cell and incubated for 1 hour at 37° C., 5% CO2. Supernatants were collected immediately following the incubation, and the concentration of the virus which remained cell-free in the culture supernatant was measured by viral plaque assay, as described above.
smiles,measurement,value
"Cl[TeH]1(Cl)(Cl)OCCO1 [AS101, ammonium trichloro(dioxyethylene-O,O′)tellurate]",WNV infectious units in culture supernatant relative to untreated cells,approximately twice
